Reference: US8598374B2, “GPR120 receptor agonists and uses thereof” (Metabolex, Inc, priority 2008, dated 2013)

Tests used:
[1] = tested on: C57BL/6J mice; assay: Oral glucose tolerance test; type: in vivo; conditions: Table 2; 100 mg/kg oral gavage, 3 g/kg oral glucose, mice fasted 6 hours
Experimental: 8-10 week old male C57BL/6J mice (Harlan) were maintained on regular chow diet from Harlan (2018 Teklad Global). On the day of the experiment mice were fasted for 6 hours, then randomized into groups (n=10-15) to receive the tested GPR120 agonist at doses ranging from 100 mg/kg or the vehicle (1% CMC, 2% TWEEN 80). Compounds were delivered orally via gavage at 10 mL/kg. Blood glucose levels were measured by glucometer (Ascensia Elite XL, Bayer) at time −30 minutes before administration of compound. Blood glucose was measured again after 30 minutes (at time 0), and then the mice were dosed orally with 3 g/kg glucose at 10 mL/kg. […]
Glucose levels were plotted against time, and the incremental area under the curve (AUC) of the glucose excursion was determined from time 0 using Graphpad Prism 5.01. Outliers were excluded using Tukey's box plot outlier test, and statistical significance of differences in AUC of compound treatment compared to vehicle was determined by non-parametric Kruskal-Wallis test with Dunn's post test.
Tables 2 and 3 below show the mean percentage inhibition of the glucose excursion for the fifteen animals tested in each group. The compounds were tested at 100 mg/kg and the levels of blood glucose were determined in the presence and absence of the tested compounds. […]

[2] = biological target: T1, human GPR120 (Homo sapiens, UniProt Q5NUL3); assay: Intracellular Ca2+ assay (FLIPR Calcium 4, Flexstation) in human GPR120 stable cell line; type: cell-based; conditions: % activity at 5 μM compared to the maximal activity of GW9508 at 6.7 μM; HEK293 cells co-expressing Gqi5
T1 construct: Flag (DYKDDDDK) (N); host or cells: HEK293 cells co-expressing Gqi5
T1 sequence (Q5NUL3 1-361): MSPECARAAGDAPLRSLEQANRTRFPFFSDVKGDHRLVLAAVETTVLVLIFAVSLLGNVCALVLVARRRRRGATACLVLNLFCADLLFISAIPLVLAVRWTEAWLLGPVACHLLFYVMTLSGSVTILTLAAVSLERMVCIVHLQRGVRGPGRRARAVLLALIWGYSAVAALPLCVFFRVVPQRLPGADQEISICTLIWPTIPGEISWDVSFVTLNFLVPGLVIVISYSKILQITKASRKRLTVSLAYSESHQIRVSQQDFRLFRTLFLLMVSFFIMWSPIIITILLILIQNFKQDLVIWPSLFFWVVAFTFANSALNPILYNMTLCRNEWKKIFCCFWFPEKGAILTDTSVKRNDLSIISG

[3] = biological target: T1, human GPR120; assay: as above; type: cell-based; conditions: for % Activity (Ex. 25 Reference Compound): % activity at 2.5 μM compared to the maximal activity of the compound of Example 25 at 2.5 μM, HEK293 cells co-expressing Gqi5; for EC50: human GPR120 stably expressing cells, eight concentrations from 0.00001 to 20 μM
Procedure, shortened: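 HEK293 cells co-expressing Gqi5 and stably expressing Flag-tagged human GPR120 were seeded at 70,000 cells per well in poly-D-lysine coated 96 well plates and loaded with FLIPR Calcium 4 dye for 50 minutes at 37° C. On a Flexstation, compound-induced fluorescence (excitation 485 nm, emission 525) was recorded for 90 seconds. Percent activity was expressed against a reference agonist's maximal activity at 2.5 μM, set as 100%.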

Row | Compound | % Activity (Ex. 25 Reference Compound) [3] | also measured
1 | CC(Cc1ccc(OCc2cc(Cl)cc3c2OC(C)(C)C3)c(F)c1)C(=O)O (stereo not shown) [Example 10, 3-(4-((5-chloro-2,2-dimethyl-2,3-dihydrobenzofuran-7-yl)methoxy)-3-fluorophenyl)-2-methylpropanoic acid] |  | % reduction AUC glucose excursion at 100 mg/kg [1]: 58.1%
2 | CC(Cc1ccc(OCc2cccc3c2CC(C)(C)O3)cc1)C(=O)O (stereo not shown) [Example 17, 3-(4-((2,2-dimethyl-2,3-dihydrobenzofuran-4-yl)methoxy)phenyl)-2-methylpropanoic acid] |  | % Activity (GW9508 Reference Compound) [2]: 72.21%
3 | Cc1cc(OCc2cc(F)cc3c2OC(C)(C)C3)c(C)cc1CCC(=O)O [Example 206, 3-(4-((5-fluoro-2,2-dimethyl-2,3-dihydrobenzofuran-7-yl)methoxy)-2,5-dimethylphenyl)propanoic acid] | 111.45% | 
4 | COc1cccc(-c2cc(COc3ccc(CC(C)C(=O)O)cc3)c3c(c2)CC(C)(C)O3)c1 (stereo not shown) [Example 86, 3-(4-((5-(3-methoxyphenyl)-2,2-dimethyl-2,3-dihydrobenzofuran-7-yl)methoxy)phenyl)-2-methylpropanoic acid] | 5.23% | EC50 [3]: 1 to 10 µM
5 | Cc1cc2cc(Cl)cc(COc3ccc(CC(C)C(=O)O)cc3F)c2o1 (stereo not shown) [Example 120, 3-(4-((5-chloro-2-methylbenzofuran-7-yl)methoxy)-3-fluorophenyl)-2-methylpropanoic acid] | 104.49% | 
6 | CC(CCc1ccc(OCc2cc(F)cc3c2OC(C)(C)C3)cc1)C(=O)O (stereo not shown) [Example 171, 4-(4-((5-fluoro-2,2-dimethyl-2,3-dihydrobenzofuran-7-yl)methoxy)phenyl)-2-methylbutanoic acid] | 98.97% | 
7 | CC1(C)Cc2cc(F)cc(COc3ccc(CCC(=O)O)c4c3CCCC4)c2O1 [Example 218, 3-(4-((5-fluoro-2,2-dimethyl-2,3-dihydrobenzofuran-7-yl)methoxy)-5,6,7,8-tetrahydronaphthalen-1-yl)propanoic acid] | 114.48% | 
8 | [2H]C([2H])(Oc1ccc(CCC(=O)O)c(CC)c1F)c1cc(F)cc2c1OC(C)(C)C2 [Example 228, 3-(4-(dideuterio(5-fluoro-2,2-dimethyl-2,3-dihydrobenzofuran-7-yl)methoxy)-3-fluoro-2-ethylphenyl)propanoic acid] | 119.11% | 
9 | CCc1cc(OCc2cccc3c2CC(C)(C)O3)ccc1CCC(=O)O [Example 140, 3-(4-((2,2-dimethyl-2,3-dihydrobenzofuran-4-yl)methoxy)-2-ethylphenyl)propanoic acid] | 146.18% | 
10 | Cc1cc2cccc(COc3ccc4c(c3)CCC4CC(=O)O)c2s1 (stereo not drawn) [Example 152, 2-(5-((2-methylbenzo[α]thiophen-7-yl)methoxy)-2,3-dihydro-1H-inden-1-yl)acetic acid] | 83.81% | 
11 | Cc1cc(OCc2cc(F)cc3c2OC(C)(C)C3)ccc1CCC(=O)O [Example 46, 3-(4-((5-fluoro-2,2-dimethyl-2,3-dihydrobenzofuran-7-yl)methoxy)-2-methylphenyl)propanoic acid] | 113.55% | EC50 [3]: 1 to 10 µM
12 | Cc1c(CCC(=O)O)ccc(OCc2cc(Cl)cc3c2OC(C)(C)C3)c1C [Example 209, 3-(4-((5-chloro-2,2-dimethyl-2,3-dihydrobenzofuran-7-yl)methoxy)-2,3-dimethylphenyl)propanoic acid] | 142.22% | 
13 | CCc1cc(OCc2cc(F)cc3c2OC(C)(C)C3)ccc1CCC(=O)O [Example 134, 3-(2-ethyl-4-((5-fluoro-2,2-dimethyl-2,3-dihydrobenzofuran-7-yl)methoxy)phenyl)propanoic acid] | 151.44% | 
14 | Cc1cc(OCc2cc(Cl)cc3c2OC(C)(C)C3)ccc1CCC(=O)O [Example 51, 3-(4-((5-chloro-2,2-dimethyl-2,3-dihydrobenzofuran-7-yl)methoxy)-2-methylphenyl)propanoic acid] |  | EC50 [3]: 1 to 10 µM
15 | CC(Cc1ccc(OCc2cc(OC(F)(F)F)cc3c2OC(C)(C)C3)cc1)C(=O)O (stereo not shown) [Example 124, 3-(4-((2,2-dimethyl-5-(trifluoromethoxy)-2,3-dihydrobenzofuran-7-yl)methoxy)phenyl)-2-methylpropanoic acid] | 131.64% | 
16 | CC(C)Oc1cc(OCc2cc(F)cc3c2OC(C)(C)C3)ccc1CCC(=O)O [Example 115, 3-(4-((5-fluoro-2,2-dimethyl-2,3-dihydrobenzofuran-7-yl)methoxy)-2-isopropoxyphenyl)propanoic acid] | 151.78% | 
17 | CC(Cc1ccc(OCc2cc(F)cc3c2OC(C)(C)C3)cc1)C(=O)NO (stereo not shown) [Example 264, 3-(4-((5-fluoro-2,2-dimethyl-2,3-dihydrobenzofuran-7-yl)methoxy)phenyl)-N-hydroxy-2-methylpropanamide] | 110.24% | 
18 | CC1(C)Cc2cc(Cl)cc(COc3ccc4c(c3)CC[C@H]4CC(=O)O)c2O1 [Example 176, (S)-2-(5-((5-chloro-2,2-dimethyl-2,3-dihydrobenzofuran-7-yl)methoxy)-2,3-dihydro-1H-inden-1-yl)acetic acid] | 138.42% | 
19 | COc1cc(COc2ccc(CC(C)C(=O)O)cc2)c2c(c1)CC(C)(C)O2 (stereo not shown) [Example 108, 3-(4-((5-methoxy-2,2-dimethyl-2,3-dihydrobenzofuran-7-yl)methoxy)phenyl)-2-methylpropanoic acid] | 143.85% | 
20 | COc1cc(OCc2cc(Cl)cc3c2OC2(CCCC2)C3)ccc1CCC(=O)O [Example 194, 3-(4-((5-chloro-3H-spiro[benzofuran-2,1′-cyclopentane]-7-yl)methoxy)-2-methoxyphenyl)propanoic acid] | 148.21% | 
21 | CC(Cc1ccc(OCc2cc(Cl)cc3c2OC(C)(C)C3=O)c(F)c1)C(=O)O (stereo not shown) [Example 77, 3-(4-((5-chloro-2,2-dimethyl-3-oxo-2,3-dihydrobenzofuran-7-yl)methoxy)-3-fluorophenyl)-2-methylpropanoic acid] | 109.62% | 
22 | 4-[[(3-phenoxyphenyl)methyl]amino]benzene propanoic acid [GW9508, reference compound] |  | concentration at which activity reached a maximum ([3]; typical value, reference compound): approximately 6.7 μM
23 | CC(CC(=O)O)c1cc(F)c(OCc2cc(Cl)cc3c2OC(C)(C)C3)c(F)c1 (stereo not shown) [Example 106, 3-(4-((5-chloro-2,2-dimethyl-2,3-dihydrobenzofuran-7-yl)methoxy)-3,5-difluorophenyl)butanoic acid] | 154.51% | 
24 | CC(=O)Nc1cc(COc2ccc(CC(C)C(=O)O)cc2)c2c(c1)CC(C)(C)O2 (stereo not shown) [Example 123, 3-(4-((5-acetamido-2,2-dimethyl-2,3-dihydrobenzofuran-7-yl)methoxy)phenyl)-2-methylpropanoic acid] | 47.01% | 
25 | Cc1c(CCC(=O)O)ccc(OCc2cc(Cl)cc3c2CC(C)(C)O3)c1C [Example 267, 3-(4-((6-chloro-2,2-dimethyl-2,3-dihydrobenzofuran-4-yl)methoxy)-2,3-dimethylphenyl)propanoic acid] | 140.82% | 
26 | CC1(C)Cc2cc(Cl)cc(COc3ccc(SCC(=O)O)cc3)c2O1 [Example 59, 2-((4-((5-chloro-2,2-dimethyl-2,3-dihydrobenzofuran-7-yl)methoxy)phenyl)thio)-acetic acid] | 117.58% | EC50 [3]: 1 to 10 µM
27 | COc1cc(CCC(=O)O)c(Br)cc1OCc1cc(F)cc2c1OC(C)(C)C2 [Example 56, 3-(2-bromo-4-((5-fluoro-2,2-dimethyl-2,3-dihydrobenzofuran-7-yl)methoxy)-5-methoxyphenyl)propanoic acid] | 108.51% | EC50 [3]: 1 to 10 µM
